IC50 data for 1 compound are collected here from PMC11130653, “Development of a rapid HPLC-fluorescence method for monitoring warfarin metabolites formation: In vitro studies for evaluating the effect of piperine on warfarin metabolism and plasma coagulation” (Heliyon, 2024).

The target of this series is T1, CYP2C9 (Homo sapiens, UniProt P11712).
T1 construct: human liver microsomes
Description: inhibition of S-warfarin 7-hydroxylation (CYP2C9 marker) in human liver microsomes, HPLC-FLD. It counts as biochemical. For orientation: Microsomes from liver hold many membrane-bound enzymes, among them those of drug oxidation.

T1 sequence (P11712 whole entry): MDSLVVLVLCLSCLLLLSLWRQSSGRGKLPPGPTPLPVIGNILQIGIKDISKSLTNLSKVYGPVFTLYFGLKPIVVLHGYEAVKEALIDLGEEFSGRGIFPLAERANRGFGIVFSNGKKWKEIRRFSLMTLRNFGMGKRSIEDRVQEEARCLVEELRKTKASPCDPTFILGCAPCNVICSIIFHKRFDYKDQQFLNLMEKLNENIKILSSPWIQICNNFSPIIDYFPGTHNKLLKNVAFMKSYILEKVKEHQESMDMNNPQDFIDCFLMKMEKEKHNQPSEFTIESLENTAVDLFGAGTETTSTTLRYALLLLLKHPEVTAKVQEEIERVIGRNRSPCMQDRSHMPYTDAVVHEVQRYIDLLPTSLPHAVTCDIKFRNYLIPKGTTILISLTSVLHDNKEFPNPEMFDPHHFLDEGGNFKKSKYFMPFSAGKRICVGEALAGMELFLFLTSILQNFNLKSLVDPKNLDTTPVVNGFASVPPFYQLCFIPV

A word on the IC50: it is the concentration that inhibits the measured activity by half. In the case of `O=C(/C=C/C=C/c1ccc2c(c1)OCO2)N1CCCCC1` [piperine], the IC50 was determined as 14.2 ± 1.1 µM.
